# Results: patent US9732094B2, “Arylquinazolines” (Merck Patent GmbH, priority 2013, dated 2017)
# Where two headings read alike, the source gives them in different places.
# How the values were obtained:
# DNA-PK = DNA-PK (Homo sapiens (Human), UniProt P78527); experiment: DNA-PK assay (biochemical), flashplate 33P-ATP kinase assay
# Procedure, shortened: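 Reactions ran in streptavidin-coated flashplates and were halted by 200 mM EDTA, with a further 30 min at room temperature before saline washing.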
# [1] = target: DNA-PK phosphorylation at serine 2056 (Homo sapiens (Human), UniProt P78527); experiment: DNA-PK phosphorylation at serine 2056 (cellular), bleomycin-treated HCT116 cells, ELISA; format: cell-based; conditions: read-out: IC50 pDNA-PK
# Procedure, shortened: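 Chemiluminescent ELISA read-out; phospho-specific signal normalised to total DNA-PKcs. Cells (HCT116) exposed 6 h to test compound plus 10 μM bleomycin to induce double-strand breaks; DMSO control served as blank.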
# Kv11.1 (hERG) = Kv11.1 (hERG) (Homo sapiens (Human), UniProt Q12809); experiment: Kv11.1 (hERG) ion channel activity (patch clamp assay), HEK293 cells transfected with hERG gene
# [2] = cellular DNA-PK phosphorylation at serine 2056, HCT116
# [3] = read-out: Ki [Kv1.11 hERG], hERG patch clamp assay (cells without asterisk)
# [4] = cellular, HCT116 cells, 10 μM bleomycin, six hours
# [5] = Ki [Kv1.11 hERG], patch clamp, HEK293 transfected with hERG gene
# [6] = read-out: Ki [Kv1.11 hERG], Table 5
# [7] = Ki [Kv1.11 hERG], hERG patch clamp assay (cells without asterisk)
# [8] = read-out: Ki [Kv1.11 hERG], patch clamp, HEK293 transfected with hERG gene
# Chain of Kv11.1 (hERG) (Q12809 whole entry): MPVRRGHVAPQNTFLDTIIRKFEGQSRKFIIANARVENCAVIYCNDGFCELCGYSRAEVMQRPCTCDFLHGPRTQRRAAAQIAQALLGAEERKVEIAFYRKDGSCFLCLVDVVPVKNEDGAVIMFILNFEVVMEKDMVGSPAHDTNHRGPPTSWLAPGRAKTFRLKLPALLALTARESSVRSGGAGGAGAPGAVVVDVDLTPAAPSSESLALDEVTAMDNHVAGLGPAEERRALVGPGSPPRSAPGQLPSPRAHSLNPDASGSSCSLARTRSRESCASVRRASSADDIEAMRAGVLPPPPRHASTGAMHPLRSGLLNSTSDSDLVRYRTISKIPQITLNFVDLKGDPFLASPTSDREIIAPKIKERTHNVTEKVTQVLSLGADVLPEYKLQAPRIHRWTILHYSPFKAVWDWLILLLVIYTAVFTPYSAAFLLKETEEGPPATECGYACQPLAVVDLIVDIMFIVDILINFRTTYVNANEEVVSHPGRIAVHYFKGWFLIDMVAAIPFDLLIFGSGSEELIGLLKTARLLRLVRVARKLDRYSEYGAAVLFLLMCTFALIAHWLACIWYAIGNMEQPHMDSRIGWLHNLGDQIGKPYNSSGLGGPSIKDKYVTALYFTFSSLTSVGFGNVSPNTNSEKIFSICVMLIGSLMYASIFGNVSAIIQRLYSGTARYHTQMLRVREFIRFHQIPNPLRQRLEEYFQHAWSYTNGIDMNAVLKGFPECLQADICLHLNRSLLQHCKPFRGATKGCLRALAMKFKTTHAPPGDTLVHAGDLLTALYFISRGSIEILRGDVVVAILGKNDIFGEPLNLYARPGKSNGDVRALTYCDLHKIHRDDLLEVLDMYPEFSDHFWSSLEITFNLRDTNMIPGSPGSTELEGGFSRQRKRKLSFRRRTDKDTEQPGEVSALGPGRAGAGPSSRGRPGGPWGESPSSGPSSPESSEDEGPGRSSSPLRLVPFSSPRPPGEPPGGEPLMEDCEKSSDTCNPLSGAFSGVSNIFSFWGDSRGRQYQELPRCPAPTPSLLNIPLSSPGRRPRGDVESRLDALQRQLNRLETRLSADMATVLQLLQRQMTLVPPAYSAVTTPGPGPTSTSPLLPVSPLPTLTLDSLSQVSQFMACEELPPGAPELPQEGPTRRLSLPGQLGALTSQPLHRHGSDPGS
compound,measurement,setting,value
"NC(=O)C(c1ccc(F)c(-c2ncnc3cc(N4CCOCC4)ccc23)c1)c1ncnn2cccc12 (stereo not drawn) [Example 299, 2-[4-Fluoro-3-(7-morpholin-4-yl-quinazolin-4-yl)-phenyl]-2-pyrrolo-[2,1-f][1,2,4]triazin-4-ylacetamide]",IC50,DNA-PK; biochemical DNA-PK assay,0.007 to 0.03 µM
same,IC50,[1]; [2],10 to 30 µM
same,Ki,Kv11.1 (hERG); [3],< 10 µM
"COc1ccc(C(O)c2ccc(F)c(-c3ncnc4cc(N5CCOCC5)cc(F)c34)c2)nn1 (stereo not drawn) [Example 260, [4-Fluoro-3-(5-fluoro-7-morpholin-4-yl-quinazolin-4-yl)-phenyl]-(6-methoxy-pyridazin-3-yl)-methanol]",IC50,DNA-PK; biochemical DNA-PK assay,< 0.003 µM
same,IC50,[1]; [2],< 0.5 µM
same,Ki,Kv11.1 (hERG); [3],> 25 µM
"OC(c1cc(-c2ncnc3cc(N4CCOCC4)ccc23)c(F)cc1Cl)c1nccnc1Cl (stereo not drawn) [Example 64, [2-Chloro-4-fluoro-5-(7-morpholin-4-yl-quinazolin-4-yl)phenyl]-(3-chloropyrazin-2-yl)-methanol]",IC50,"DNA-PK; enzymatic, 5 μM ATP",0.003 to 0.007 µM
same,IC50,[1]; [4],< 0.5 µM
same,Ki,Kv11.1 (hERG); [5],10 to 15 µM
"CC(C)n1cc(C(O)c2ccc(F)c(-c3ncnc4cc(N5CCOCC5)ccc34)c2)cn1 (stereo not drawn) [Example 197, [4-Fluoro-3-(7-morpholin-4-yl-quinazolin-4-yl)-phenyl]-(1-isopropyl-1H-pyrazol-4-yl)-methanol]",IC50,DNA-PK; Table 5,0.003 to 0.007 µM
same,IC50,"[1]; Table 5, HCT116 cells",5 to 10 µM
same,Ki,Kv11.1 (hERG); [6],< 10 µM
"OC(c1ccc(F)c(-c2ncnc3cc(N4CCOCC4)sc23)c1)c1nccs1 (racemic) [Example 144, [4-fluoro-3-(6-morpholin-4-ylthieno[3,2-d]pyrimidin-4-yl)phenyl]thiazol-2-ylmethanol]",IC50,DNA-PK; Table 5,< 0.003 µM
same,IC50,"[1]; Table 5, HCT116 cells",0.5 to 5 µM
same,Ki,"Kv11.1 (hERG); human, HEK293 cells stably transfected with the hERG gene, Ki [Kv1.11 hERG], Table 5",15 to 25 µM
"OC(c1ccc(F)c(-c2ncnc3cc(N4CCOCC4)ccc23)c1)c1ncccc1Cl (stereo not drawn) [Example 42, (3-Chloro-pyridin-2-yl)-[4-fluoro-3-(7-morpholin-4-yl-quinazolin-4-yl)phenyl]-methanol]",IC50,"DNA-PK; enzymatic, 5 μM ATP",< 0.003 µM
same,IC50,[1]; [4],< 0.5 µM
same,Ki,Kv11.1 (hERG); [5],15 to 25 µM
"Cn1ncc2c(C(O)c3ccc(F)c(-c4ncnc5cc(N6CCOCC6)ccc45)c3)ncnc21 (stereo not drawn) [Example 404, [4-Fluoro-3-(7-morpholin-4-yl-quinazolin-4-yl)-phenyl]-(1-methyl-1H-pyrazolo[3,4-d}-pyrimidin-4-yl)-methanol]",IC50,DNA-PK; biochemical DNA-PK assay,0.003 to 0.007 µM
same,IC50,[1]; [2],< 0.5 µM
same,Ki,Kv11.1 (hERG); [3],> 25 µM
"OC(c1cc(-c2ncnc3cc(N4CCOCC4)ccc23)ccc1F)c1cccc2nncn12 (stereo not drawn) [Example 373, [2-Fluoro-5-(7-morpholin-4-yl-quinazolin-4-yl)-phenyl]-[1,2,4]-triazolo[4,3-a]pyridin-5-ylmethanol]",IC50,DNA-PK; biochemical DNA-PK assay,0.003 to 0.007 µM
same,IC50,[1]; [2],0.5 to 5 µM
same,Ki,Kv11.1 (hERG); [7],15 to 25 µM
"OC(c1ccc2ncnn2c1)c1cc(-c2ncnc3cc(N4CCOCC4)ccc23)c(F)cc1F (stereo not drawn) [Example 222, [2,4-Difluro-5-(7-morpholin-4-yl-quinazolin-4-yl)-phenyl]-[l,2,4]-triazolo[1,5-a]pyridin-6-ylmethanol]",IC50,DNA-PK; Table 7,0.003 to 0.007 µM
same,IC50,"[1]; Table 7, HCT116 cells",0.5 to 5 µM
same,Ki,"Kv11.1 (hERG); read-out: Ki [Kv1.11 hERG], Table 7",> 25 µM
"CC(O)(c1ccc(F)c(-c2ncnc3cc(N4CCOCC4)ccc23)c1)c1nccs1 (stereo not drawn) [Example 163, 1-[4-Fluoro-3-(7-morpholin-4-yl-quinazolin-4-yl)-phenyl]-1-thiazol-2-ylethanol]",IC50,DNA-PK; Table 5,0.007 to 0.03 µM
same,IC50,"[1]; Table 5, HCT116 cells",10 to 30 µM
same,Ki,"Kv11.1 (hERG); Ki [Kv1.11 hERG], Table 5",10 to 15 µM
"O=c1[nH]ccnc1C(O)c1ccc(F)c(-c2ncnc3cc(N4CCOCC4)ccc23)c1 (stereo not drawn) [Example 5, 3-{[4-Fluoro-3-(7-morpholin-4-yl-quinazolin-4-yl)phenyl]-hydroxymethyl]-1H-pyrazin-2-one]",IC50,"DNA-PK; enzymatic, 5 μM ATP",> 0.03 µM
same,IC50,[1]; [4],10 to 30 µM
same,Ki,Kv11.1 (hERG); [5],15 to 25 µM
"OC(c1ccc(F)c(-c2ncnc3cc(N4CCOCC4)ccc23)c1)c1ncccc1Cl (stereo not drawn) [Example 466, (3-Chloro-pyridin-2-yl)-[4-fluoro-3-(7-morpholin-4-yl-quinazolin-4-yl)-phenyl]methanol]",IC50,DNA-PK; biochemical DNA-PK assay,0.007 to 0.03 µM
same,IC50,[1]; [2],0.5 to 5 µM
same,Ki,Kv11.1 (hERG); [3],15 to 25 µM
"OC(c1ccc(F)c(-c2ncnc3cc(N4CCOCC4)ccc23)c1)c1nncc2ccoc12 (stereo not drawn) [Example 335, [4-Fluoro-3-(7-morpholin-4-yl-quinazolin-4-yl)-phenyl]furo[2,3-d}-pyridazin-7-yl-methanol]",IC50,DNA-PK; biochemical DNA-PK assay,< 0.003 µM
same,IC50,[1]; [2],< 0.5 µM
same,Ki,Kv11.1 (hERG); [3],> 25 µM
"O=C(O)COc1ccc(C(O)c2cc(-c3ncnc4cc(N5CCOCC5)ccc34)c(F)cc2Cl)nn1 (stereo not drawn) [Example 113, (6-{[2-Chloro-4-fluoro-5-(7-morpholin-4-yl-quinazolin-4-yl)-phenyl]hydroxy-methyl}pyridazin-3-yl-oxy)acetic acid]",IC50,"DNA-PK; enzymatic, 5 μM ATP",0.003 to 0.007 µM
same,IC50,[1]; [4],10 to 30 µM
same,Ki,Kv11.1 (hERG); [8],> 25 µM
"OC(c1cnc(F)c(-c2ncnc3cc(N4CCOCC4)ccc23)c1)c1nccs1 (stereo not drawn) [Example 189, [6-Fluoro-5-(7-morpholin-4-yl-quinazolin-4-yl)-pyridin-3-yl]thiazol-2-ylmethanol]",IC50,DNA-PK; Table 5,0.003 to 0.007 µM
same,IC50,"[1]; Table 5, HCT116 cells",0.5 to 5 µM
same,Ki,"Kv11.1 (hERG); Ki [Kv1.11 hERG], Table 5",15 to 25 µM
"Oc1ncnc(C(O)c2cc(-c3ncnc4cc(N5CCOCC5)ccc34)ccc2Cl)c1Cl (stereo not drawn) [Example 330, 5-Chloro-6-{[2-chloro-5-(7-morpholin-4-yl-quinazolin-4-yl)-phenyl]hydroxy-methyl}pyrimidin-4-ol]",IC50,DNA-PK; biochemical DNA-PK assay,0.007 to 0.03 µM
same,IC50,[1]; [2],10 to 30 µM
same,Ki,Kv11.1 (hERG); [3],> 25 µM
"COc1ccc(C(C(N)=O)c2ccc(F)c(-c3ncnc4cc(N5CCOCC5)ccc34)c2)nn1 (stereo not drawn) [Example 308, 2-[4-Fluoro-3-(7-morpholin-4-yl-quinazolin-4-yl)-phenyl]-2-(6-methoxypyridazin-3-yl)acetamide]",IC50,DNA-PK; biochemical DNA-PK assay,0.007 to 0.03 µM
same,IC50,[1]; [2],10 to 30 µM
same,Ki,Kv11.1 (hERG); [3],> 25 µM
"Cn1c(C(O)c2ccc(F)c(-c3ncnc4cc(N5CCOCC5)ccc34)c2)nccc1=O (stereo not drawn) [Example 360, 2-{[4-Fluoro-3-(7-morpholin-4-yl-quinazolin-4-yl)-phenyl]hydroxy-methyl}-3-methyl-3H-pyrimidin-4-one]",IC50,DNA-PK; biochemical DNA-PK assay,0.003 to 0.007 µM
same,IC50,[1]; [2],0.5 to 5 µM
same,Ki,Kv11.1 (hERG); [3],> 25 µM
"COc1ccc(C(O)c2cc(-c3nc(Cl)nc4cc(N5CCOCC5)ccc34)c(F)cc2Cl)nn1 (stereo not drawn) [Example 132, [2-Chloro-5-(2-chloro-7-morpholin-4-yl-quinazolin-4-yl)-4-fluorophenyl]-(6-methoxy-pyridazin-3-yl)-methanol]",IC50,"DNA-PK; enzymatic, 5 μM ATP",0.003 to 0.007 µM
same,IC50,[1]; [4],0.5 to 5 µM
same,Ki,Kv11.1 (hERG); [8],> 25 µM
"Cn1c(C(O)c2ccc(F)c(-c3ncnc4cc(N5CCOCC5)ccc34)c2)cccc1=O (stereo not drawn) [Example 376, 6-{[4-Fluoro-3-(7-morpholin-4-yl-quinazolin-4-yl)-phenyl]hydroxy-methyl}-1-methyl-1H-pyridin-2-one]",IC50,DNA-PK; biochemical DNA-PK assay,< 0.003 µM
same,IC50,[1]; [2],< 0.5 µM
same,Ki,Kv11.1 (hERG); [3],> 25 µM
"COc1ccc([C@H](O)c2ccc(F)c(-c3ncnc4cc(N5CCOCC5)ccc34)c2)nn1 [Example 71, (R)-[4-Fluoro-3-(7-morpholin-4-yl-quinazolin-4-yl)phenyl]-(6-methoxypyridazin-3-yl)methanol]",IC50,"DNA-PK; enzymatic, 5 μM ATP",< 0.003 µM
same,IC50,[1]; [4],0.5 to 5 µM
same,Ki,Kv11.1 (hERG); [8],> 25 µM
"OC(c1cnc(F)c(-c2ncnc3cc(N4CCOCC4)ccc23)c1)c1nccs1 (stereo not drawn) [Example 180, [6-Fluoro-5-(7-morpholin-4-yl-quinazolin-4-yl)-pyridin-3-yl]thiazol-2-ylmethanol]",IC50,DNA-PK; Table 5,< 0.003 µM
same,IC50,"[1]; Table 5, HCT116 cells",5 to 10 µM
same,Ki,Kv11.1 (hERG); [6],< 10 µM
"Cn1c(C(O)c2cc(-c3ncnc4cc(N5CCOCC5)ccc34)ccc2F)cccc1=O (stereo not drawn) [Example 401, 6-{[2-Fluoro-5-(7-morpholin-4-yl-quinazolin-4-yl)-phenyl]hydroxy-methyl}-1-methyl-1H-pyridin-2-one]",IC50,DNA-PK; biochemical DNA-PK assay,0.003 to 0.007 µM
same,IC50,[1]; [2],0.5 to 5 µM
same,Ki,Kv11.1 (hERG); [7],10 to 15 µM
"Cn1cnc2c(C(O)c3cc(-c4ncnc5cc(N6CCOCC6)ccc45)c(F)cc3F)ncnc21 (stereo not drawn) [Example 421, [2.4-Difluoro-5-(7-morpholin-4-yl-quinazolin-4-yl)-phenyl]-(9-methyl-9H-purin-6-yl)-methanol]",IC50,DNA-PK; biochemical DNA-PK assay,0.007 to 0.03 µM
same,IC50,[1]; [2],0.5 to 5 µM
same,Ki,Kv11.1 (hERG); [3],> 25 µM
"CN(C)C(=O)c1ccc(C(O)c2cc(-c3ncnc4cc(N5CCOCC5)ccc34)c(F)cc2Cl)nn1 (stereo not drawn) [Example 50, 6-{[2-Chloro-4-fluoro-5-(7-morpholin-4-yl-quinazolin-4-yl)phenyl]-hydroxymethyl}-pyridazine-3-carboxylic acid dimethylamide]",IC50,"DNA-PK; enzymatic, 5 μM ATP",0.007 to 0.03 µM
same,IC50,[1]; [4],10 to 30 µM
same,Ki,Kv11.1 (hERG); [8],> 25 µM
